The source of these data is patent US20030190334A1, “Low dose liquid entecavir formulations and use” (priority 2002, published 2003).

A short description of the data set: Reaction of entecavir with sweetener or flavoring agent that contains aldehyde and/or ketone groups. Format: physicochemical. An excerpt: While entecavir is potent, it is also extremely bitter. To combat the bitterness, a sweetener is generally used. However, entecavir has shown a tendency to react with commonly used sweeteners, such as sucrose, creating stability concerns. Entecavir has a primary amine group in its structure that has the propensity to react with any sweetener or flavoring agent that contains aldehyde and/or ketone groups.

Molecules are shown by their SMILES.

On to `C=C1[C@H](CO)[C@@H](O)C[C@@H]1n1cnc2c(=O)[nH]c(N)nc21` [Entecavir, [1S-(1α,3α,4β)]-2-amino-1,9-dihydro-9-[4-hydroxy-3-(hydroxymethyl)-2-methylenecyclopentyl]-6H-purin-6-one], for which the “reaction with sweetener or flavoring agent that contains aldehyde and/or ketone groups” value runs as follows: (pH 5 to 7) “minimized”; (weakly acidic pH (pH 3 to 4)) “more pronounced”.
